According to patent US10987354B2, “Inhibitors of influenza virus replication and uses thereof” (SUNSHINE LAKE PHARMA CO., LTD., priority 2016, dated 2021):
Like-named read-outs stand apart in the source and are kept apart here.

What was measured:
virus H1N1 A/Weiss/43 = assay: microbe, parasite or virus in culture; format: cell-based; settings: Influenza A virus, H1N1, 120 h; MDCK cells, CPE, 5 days, CCK-8; read-out: EC50, inhibitory activity against influenza virus (A/Weiss/43(H1N1))
[1] = test system: Influenza B virus-B/Lee/40; assay: microbe, parasite or virus in culture; format: cell-based; settings: 72 h, read-out: EC50, inhibitory activity against influenza virus (Influenza B virus-B/Lee/40)
[2] = MDCK cells, CPE, 3 days, CellTiter

With `CC(C)n1ccc2c(N[C@H]3C4CCC(CC4)[C@@H]3C(=O)O)nc(-c3c[nH]c4ncc(Cl)nc34)nc21` [Example 20, (2S,3S)-3-((2-(2-chloro-5H-pyrrolo[2,3-b]pyrazin-7-yl)-7-isopropyl-7H-pyrrolo[2,3-d]pyrimidin-4-yl)amino)bicyclo[2.2.2]octane-2-carboxylic Acid] as the compound, how does the EC50 (virus H1N1 A/Weiss/43) read?
Its EC50 is 0.192 nM.

What about the EC50 [1, 2] of the same compound?
The EC50 was 1620 nM.

With `O=C(O)[C@H]1C2CCC(CC2)[C@@H]1Nc1nc(-c2c[nH]c3ncc(Cl)nc23)nc(-n2cccc2)c1F` [Example 60, (2S,3S)-3-((2-(2-chloro-5H-pyrrolo[2,3-b]pyrazin-7-yl)-5-fluoro-6-(1H-pyrrol-1-yl)pyrimidin-4-yl)amino)bicyclo[2.2.2]octane-2-carboxylic Acid] as the compound, how does the EC50 [1, 2] read?
The EC50 was 26400 nM.

How did the EC50 ([1]; MDCK) turn out when `O=C(O)C1C2CCC(CC2)C1Nc1nc(-c2c[nH]c3ncc(F)cc23)ncc1F` (stereo not shown) [JNJ-872, reference compound] was run?
Its EC50 is > 50000 nM.
